# Measured values taken from patent publication US20060177385A1, “Compositions for treating dental caries caused by streptococcus mutans infection” (priority 2002, published 2006).
# What was measured:
# [1] = target: T1, Rhodobacter sphaeroides (Rb.s.) ADPG Ppase (Cereibacter sphaeroides, UniProt Q9RNH7); experiment: ADPG Ppase enzyme assay (14C Glc-1-P to ADPGlucose) with ADPG borano analogs; assay type: biochemical; set-up: *2.2: unit not given here; details: for inhibition of Rb.s. ADPG Ppase: 500 μM
# T1 construct: made in house
# Source text: Assaying for ADPGlc synthesis activity involves measuring the amount of 14-C labeled Glc-1-P converted to ADPGlucose (Preiss, J., Shen, L., Greenberg, E., and Gentner, N. (1966) Biochemistry 5, 1833-1845). Briefly, unreacted Glc-1-P is separated from product by the following steps: 1) digestion with alkaline phosphatase (thus removing the negatively charged phosphate); 2) spotting an aliquot of the reaction mixture on to positively charged DE-81 filters (Whatman); and 3) washing the filters with water (thus removing the now neutral C-14 glucose).
# To assess the effect of a putative inhibitor, enzyme assays are performed at a subsaturating concentration of substrate (depending on the enzyme, ATP=0.2-1 mM, Glc-1-P=0.5 mM) under standard conditions in the absence and presence of the major activator for each enzyme (1-5 mM depending on enzyme). In this way, the effect of the inhibitors can be evaluated under the range of the expected in vivo conditions. Initial screening of a putative inhibitor typically includes testing at two concentrations (˜25 μM and 1 mM)±major activator with appropriate controls and blanks for a total of 9 assays/inhibitor/enzyme (2 control assays—appropriate enzyme concentrations in the absence of inhibitor, 4 experimental assays; 1 blank in the absence of inhibitors; 2 blanks in the presence of inhibitor (no activator required).
# The APDGlc Ppase from Rhodobacter sphaeroides has been used as a model enzyme for initial testing of inhibitors as it has been cloned, sequenced, and expressed in the inventor's laboratory (Meyer et al (1999) Arch. Biochem. Biophys. 372, 179-188; Igarashi, R. Y. and Meyer, C. R. (2000) Arch. Biochem Biophys. 376, 47-58) and the purified recombinant enzyme is readily available. Further, this particular enzyme has the most complex regulation (having partial overlap with nearly every type of ADPG Ppase) and has sufficient homology (ranging from ˜40-70% similarity) to the enzyme primary sequence from the mentioned pathogenic bacteria.
# 1. OVERVIEW: 2 analogs (ANALOG; stereoisomers I, II) of adenosine-α-P-boranodiphosphoglucose were tested for inhibiting activity against the ADPG Ppase enzyme from Rhodobacter sphaeroides (Rb.s.) ADPG Ppase.
# PREMIX: A: 100 mM HEPES (pH 7), 0.5 mg/mL BSA, 0.5 mM Glc-1-P, 0.25 mM ATP subsaturating (near S0.5 value), 5 mM MgCl2, (0.2 U Pyrophosphatase))
# (170 μL premix will allow 20 μL for analog vol., 10 μL of E)
# II. ANALOG CONC.=5, 50, 500 μM (STOCK CONC.=5 mM) in 50 mM HEPES, pH 7, note that 20 μL of 5 mM in 200 μL assay will yield 500 μM final concentration to obtain 5
# • ANALOG I: add 625 μL of HEPES buffer, mix thoroughly • ANALOG II: add 500 μL of HEPES buffer, mix thoroughly 1:10 DILUTION ALIQUOTS OF 5 mM STOCKS are prepared in order to generate stock solutions that will give 50 and 5 μM with the addition of 20 μL. 100 μL aliquots are stored at −20 C RBS ADPG PPASE WT ENZYME CONC.=17 mg/mL (use 1:8000 dilution in Dilution Buffer) The Following Assay Set of 11 are Utilized for Each Analog 1—BLANK (Premix A) 2—BLANK+50 μM ANALOG (A) 3—BLANK+500 μM ANALOG (A) 4—E CON (A) 5—E CON+F6P (B) 6—E+5 μM (A) 7—E+5 μM (B) 8—E+50 μM (A) 9—E+50 μM (B) 10—E+500 μM (A) 11—E+500 μM (B)
# Purified Rb.s ADPG Ppase was assayed under standard conditions (0.25 mM ATP [˜S0.5 value], 0.5 mM Glc-1-P, 5 mM Mg, 100 mM HEPES, pH7) in the presence and absence of the activator F6P (1 mM) at 3 concentrations of the analogs: 5, 50, and 500 μM. Analog stock solutions were made in 50 mM HEPES, pH 7). These concentrations should be regarded as estimates as there could have been some breakdown of the compounds during 2 years of storage at −20° C. The analogs had no effect on the background cpm of the assays.
# bacteria = details: cited from earlier work
# [2] = single rinse, mouthrinse, 10 subjects; cited from earlier work
# [3] = 5 uM analog, premix B (+1 mM F6P)
# [4] = 50 uM analog, premix A (no F6P)
# [5] = 50 uM analog, premix B (+1 mM F6P)
# [6] = 500 uM analog, premix A (no F6P)
# [7] = 500 uM analog, premix B (+1 mM F6P)
# T1 sequence (Q9RNH7 whole entry): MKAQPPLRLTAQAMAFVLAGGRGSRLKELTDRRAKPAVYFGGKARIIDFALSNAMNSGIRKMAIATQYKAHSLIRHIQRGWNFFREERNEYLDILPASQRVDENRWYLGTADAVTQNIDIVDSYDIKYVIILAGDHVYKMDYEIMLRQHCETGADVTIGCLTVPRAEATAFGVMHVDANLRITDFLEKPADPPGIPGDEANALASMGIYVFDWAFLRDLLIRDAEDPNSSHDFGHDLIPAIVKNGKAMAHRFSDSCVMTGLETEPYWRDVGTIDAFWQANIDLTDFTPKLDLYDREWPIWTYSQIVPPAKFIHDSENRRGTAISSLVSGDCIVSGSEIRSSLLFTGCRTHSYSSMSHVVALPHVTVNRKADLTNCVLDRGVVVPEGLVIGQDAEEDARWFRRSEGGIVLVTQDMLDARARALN
smiles,measurement,setting,value
"BP(=O)(OC[C@H]1O[C@@H](n2cnc3c(N)ncnc32)[C@H](O)[C@@H]1O)OP(=O)(O)O[C@H]1O[C@H](CO)[C@@H](O)[C@H](O)[C@H]1O (single isomer, unassigned) [Analog I, adenosine-α-P-boranodiphosphoglucose]",*2.2,"[1]; 5 uM analog, premix A (no F6P)",0.854
same,CPM,"[1]; 5 uM analog, premix A (no F6P)",380.67 CPM
same,Units/mg,"[1]; 5 uM analog, premix A (no F6P)",4.02 Units/mg
same,cor. CPM,"[1]; 5 uM analog, premix A (no F6P)",320.34 CPM
same,dil. Corr,"[1]; 5 uM analog, premix A (no F6P)",68.339 nmol/min/µL
same,nmol,"[1]; 5 uM analog, premix A (no F6P)",0.39 nmol
same,nmol/min,"[1]; 5 uM analog, premix A (no F6P)",0.085 nmol/min
same,nmol/min/uL,"[1]; 5 uM analog, premix A (no F6P)",0.0085 nmol/min/µL
same,*2.2,[1]; [3],19.496
same,CPM,[1]; [3],7371.33 CPM
same,Units/mg,[1]; [3],91.75 Units/mg
same,cor. CPM,[1]; [3],7311.00 CPM
same,dil. Corr,[1]; [3],1559.680 nmol/min/µL
same,nmol,[1]; [3],8.86 nmol
same,nmol/min,[1]; [3],1.950 nmol/min
same,nmol/min/uL,[1]; [3],0.1950 nmol/min/µL
same,*2.2,[1]; [4],0.755
same,CPM,[1]; [4],359.33 CPM
same,Units/mg,[1]; [4],3.55 Units/mg
same,cor. CPM,[1]; [4],283.00 CPM
same,dil. Corr,[1]; [4],60.373 nmol/min/µL
same,nmol,[1]; [4],0.34 nmol
same,nmol/min,[1]; [4],0.075 nmol/min
same,nmol/min/uL,[1]; [4],0.0075 nmol/min/µL
same,*2.2,[1]; [5],18.572
same,CPM,[1]; [5],7041.00 CPM
same,Units/mg,[1]; [5],87.40 Units/mg
same,cor. CPM,[1]; [5],6964.67 CPM
same,dil. Corr,[1]; [5],1485.796 nmol/min/µL
same,nmol,[1]; [5],8.44 nmol
same,nmol/min,[1]; [5],1.857 nmol/min
same,nmol/min/uL,[1]; [5],0.1857 nmol/min/µL
same,*2.2,[1]; [6],0.284
same,CPM,[1]; [6],160.00 CPM
same,Units/mg,[1]; [6],1.33 Units/mg
same,cor. CPM,[1]; [6],106.33 CPM
same,dil. Corr,[1]; [6],22.684 nmol/min/µL
same,nmol,[1]; [6],0.13 nmol
same,nmol/min,[1]; [6],0.028 nmol/min
same,nmol/min/uL,[1]; [6],0.0028 nmol/min/µL
same,*2.2,[1]; [7],11.341
same,CPM,[1]; [7],4306.67 CPM
same,Units/mg,[1]; [7],53.37 Units/mg
same,cor. CPM,[1]; [7],4253.00 CPM
same,dil. Corr,[1]; [7],907.307 nmol/min/µL
same,nmol,[1]; [7],5.16 nmol
same,nmol/min,[1]; [7],1.134 nmol/min
same,nmol/min/uL,[1]; [7],0.1134 nmol/min/µL
same,inhibition of Rb.s. ADPG Ppase,[1]; absence of the activator F6P,about 75%
same,inhibition of Rb.s. ADPG Ppase,[1]; presence of F6P,~50%
"BP(=O)(OC[C@H]1O[C@@H](n2cnc3c(N)ncnc32)[C@H](O)[C@@H]1O)OP(=O)(O)O[C@H]1O[C@H](CO)[C@@H](O)[C@H](O)[C@H]1O (single isomer, unassigned) [Analog II, adenosine-α-P-boranodiphosphoglucose]",*2.2,"[1]; 5 uM analog, premix A (no F6P)",1.122
same,CPM,"[1]; 5 uM analog, premix A (no F6P)",477.00 CPM
same,Units/mg,"[1]; 5 uM analog, premix A (no F6P)",5.28 Units/mg
same,cor. CPM,"[1]; 5 uM analog, premix A (no F6P)",420.67 CPM
same,dil. Corr,"[1]; 5 uM analog, premix A (no F6P)",89.743 nmol/min/µL
same,nmol,"[1]; 5 uM analog, premix A (no F6P)",0.51 nmol
same,nmol/min,"[1]; 5 uM analog, premix A (no F6P)",0.112 nmol/min
same,nmol/min/uL,"[1]; 5 uM analog, premix A (no F6P)",0.0112 nmol/min/µL
same,*2.2,[1]; [3],19.946
same,CPM,[1]; [3],7536.00 CPM
same,Units/mg,[1]; [3],93.86 Units/mg
same,cor. CPM,[1]; [3],7479.67 CPM
same,dil. Corr,[1]; [3],1595.663 nmol/min/µL
same,nmol,[1]; [3],9.07 nmol
same,nmol/min,[1]; [3],1.995 nmol/min
same,nmol/min/uL,[1]; [3],0.1995 nmol/min/µL
same,*2.2,[1]; [4],0.930
same,CPM,[1]; [4],399.67 CPM
same,Units/mg,[1]; [4],4.38 Units/mg
same,cor. CPM,[1]; [4],348.67 CPM
same,dil. Corr,[1]; [4],74.383 nmol/min/µL
same,nmol,[1]; [4],0.42 nmol
same,nmol/min,[1]; [4],0.093 nmol/min
same,nmol/min/uL,[1]; [4],0.0093 nmol/min/µL
same,*2.2,[1]; [5],16.305
same,CPM,[1]; [5],6165.33 CPM
same,Units/mg,[1]; [5],76.73 Units/mg
same,cor. CPM,[1]; [5],6114.33 CPM
same,dil. Corr,[1]; [5],1304.390 nmol/min/µL
same,nmol,[1]; [5],7.41 nmol
same,nmol/min,[1]; [5],1.630 nmol/min
same,nmol/min/uL,[1]; [5],0.1630 nmol/min/µL
same,*2.2,[1]; [6],0.376
same,CPM,[1]; [6],194.33 CPM
same,Units/mg,[1]; [6],1.77 Units/mg
same,cor. CPM,[1]; [6],141.00 CPM
same,dil. Corr,[1]; [6],30.080 nmol/min/µL
same,nmol,[1]; [6],0.17 nmol
same,nmol/min,[1]; [6],0.038 nmol/min
same,nmol/min/uL,[1]; [6],0.0038 nmol/min/µL
same,*2.2,[1]; [7],7.122
same,CPM,[1]; [7],2724.00 CPM
same,Units/mg,[1]; [7],33.51 Units/mg
same,cor. CPM,[1]; [7],2670.67 CPM
same,dil. Corr,[1]; [7],569.743 nmol/min/µL
same,nmol,[1]; [7],3.24 nmol
same,nmol/min,[1]; [7],0.712 nmol/min
same,nmol/min/uL,[1]; [7],0.0712 nmol/min/µL
same,inhibition of Rb.s. ADPG Ppase,[1]; absence of the activator F6P,about 70%
same,inhibition of Rb.s. ADPG Ppase,[1]; presence of F6P,about 70%
[F-].[Na+] [NaF],increase in concentration necessary to be bacteriocidal,bacteria; relative to inhibitory concentration,30 fold
same,concentration required for inhibitory effects,bacteria; vehicles,> 100 μl/ml
CCCCC(CC)CNC(=N)NC(=N)NCCCCCCNC(=N)NC(=N)NCC(CC)CCCC (stereo not drawn) [alexidine],return to pre-rinse levels after,[2],5 h
N=C(NCCCCCCNC(=N)NC(=N)Nc1ccc(Cl)cc1)NC(=N)Nc1ccc(Cl)cc1.O=C(O)[C@H](O)[C@@H](O)[C@H](O)[C@H](O)CO.O=C(O)[C@H](O)[C@@H](O)[C@H](O)[C@H](O)CO [chlorhexidine gluconate],return to pre-rinse levels after,[2],7 h
CCCCC(CC)CN1CN(CC(CC)CCCC)CC(C)(N)C1 (stereo not drawn) [hexetidine],return to pre-rinse levels after,[2],1.5 h
